Assay results reported in ChEMBL document CHEMBL1201862, “PubChem BioAssay data set” (2004).
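Grown in 96-well plates, cells were treated for 48 hours with each compound at five concentrations. Insufficient inhibition: endpoint recorded as highest concentration tested. Abbreviation: GI50, concentration required for 50% inhibition of growth.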 Active and inactive are the calls of the source. Rule as the data show it: active = GI50 up to about 1.1 µM and inactive = higher.

Legend:
Assay in all cases: DTP human tumour cell line panel, 48 h
U-251 = test system: U-251
KM12 = test system: KM12
HT-29 = test system: HT-29
COLO 205 = test system: COLO 205
HCT-116 = test system: HCT-116
TK-10 = test system: TK-10
SF-268 = test system: SF-268
SK-OV-3 = test system: SK-OV-3
SN12C = test system: SN12C
UACC-62 = test system: UACC-62
Malme-3M = test system: Malme-3M
CCRF-CEM = test system: CCRF-CEM
MOLT-4 = test system: MOLT-4
RXF 393 = test system: RXF 393
SW-620 = test system: SW-620
SNB-19 = test system: SNB-19
OVCAR-3 = test system: OVCAR-3
MDA-N = test system: MDA-N
OVCAR-5 = test system: OVCAR-5
SF-539 = test system: SF-539

Measured: GI50

O=C(O)C1CCN(Cc2oc(CO)cc(=O)c2O)C1 (centres undefined)
inactive: U-251 > 100 µM | KM12 > 100 µM | HT-29 > 100 µM | COLO 205 > 100 µM | HCT-116 > 100 µM | TK-10 > 100 µM | SF-268 > 100 µM | SK-OV-3 > 100 µM | SN12C > 100 µM | UACC-62 > 100 µM | Malme-3M > 100 µM | CCRF-CEM > 100 µM | MOLT-4 > 100 µM | RXF 393 > 100 µM | SW-620 > 100 µM | SNB-19 > 100 µM | OVCAR-3 > 100 µM | MDA-N > 100 µM | OVCAR-5 > 100 µM

C[C@@H](CO)C1=CC(C#C[Si](C)(C)C)N(C(=O)Oc2ccccc2)c2ccccc21 (some centres undefined)
inactive: U-251 18.3 µM | KM12 14.2 µM | SF-539 17.8 µM | HT-29 16 µM | COLO 205 23.8 µM | HCT-116 15.3 µM | TK-10 31.1 µM | SF-268 16.5 µM | SK-OV-3 23.3 µM | SN12C 16.8 µM | UACC-62 9.1 µM | CCRF-CEM 20.4 µM | MOLT-4 3.29 µM | RXF 393 5.86 µM | SW-620 24 µM | SNB-19 27.2 µM | OVCAR-3 13.2 µM | MDA-N 7.08 µM | OVCAR-5 19.8 µM

COc1c(C)c(C/C=C(\C)CC/C=C(\C)CCC=C(C)C)c(OC)c(OC)c1OC
inactive: U-251 > 100 µM | KM12 > 100 µM | SF-539 > 100 µM | HT-29 76.2 µM | COLO 205 > 100 µM | HCT-116 > 100 µM | TK-10 > 100 µM | SF-268 > 100 µM | SK-OV-3 > 100 µM | SN12C > 100 µM | UACC-62 > 100 µM | CCRF-CEM 56.5 µM | MOLT-4 91.4 µM | RXF 393 44 µM | SW-620 > 100 µM | SNB-19 > 100 µM | OVCAR-3 > 100 µM | MDA-N 76.9 µM | OVCAR-5 > 100 µM

COc1cc(C2c3c(ccc4ccccc34)C(=O)C3CCC(=O)N32)cc(OC)c1OC (centres undefined)
inactive: U-251 > 50 µM | KM12 > 50 µM | SF-539 > 50 µM | HT-29 > 50 µM | COLO 205 > 50 µM | HCT-116 > 50 µM | SF-268 > 50 µM | SK-OV-3 > 50 µM | SN12C > 50 µM | UACC-62 > 50 µM | CCRF-CEM > 50 µM | MOLT-4 > 50 µM | RXF 393 > 50 µM | SW-620 > 50 µM | SNB-19 > 50 µM | OVCAR-3 > 50 µM | MDA-N > 50 µM | OVCAR-5 > 50 µM

CCOc1cc2c(cc1O)/C(=N/NS(=O)(=O)c1ccc(C)cc1)C[C@@H]1[C@@H]2CC[C@]2(C)[C@@H](O)CC[C@@H]12
inactive: U-251 6.53 µM | KM12 4.22 µM | SF-539 3.45 µM | HT-29 2.89 µM | COLO 205 3.36 µM | TK-10 51.1 µM | SF-268 7.13 µM | SK-OV-3 10.5 µM | Malme-3M 7.43 µM | CCRF-CEM 3.79 µM | MOLT-4 1.92 µM | RXF 393 4.85 µM | SW-620 3.52 µM | SNB-19 8.79 µM | MDA-N 1.2 µM | OVCAR-5 21 µM

CC(O)C(CO)NC(=O)C1CSSCC(NC(=O)C(N)Cc2ccccc2)C(=O)NC(Cc2ccccc2)C(=O)NC(Cc2c[nH]c3ccccc23)C(=O)NC(CCCCN)C(=O)NC(C(C)O)C(=O)N1 (centres undefined)
inactive: U-251 > 100 µM | KM12 > 100 µM | SF-539 > 100 µM | HT-29 > 100 µM | COLO 205 > 100 µM | HCT-116 > 100 µM | TK-10 > 100 µM | SF-268 > 100 µM | SN12C > 100 µM | UACC-62 > 100 µM | Malme-3M > 100 µM | CCRF-CEM > 100 µM | MOLT-4 > 100 µM | RXF 393 > 100 µM | SW-620 > 100 µM | SNB-19 > 100 µM | OVCAR-3 > 100 µM | MDA-N > 100 µM | OVCAR-5 > 100 µM

C[C@H](C(=O)N1C(=O)O[C@@H](c2ccccc2)[C@H]1C)[C@H](c1ccccc1)N(Cc1ccccc1)OC(=O)c1ccccc1
inactive: U-251 31.9 µM | KM12 49.3 µM | SF-539 71.3 µM | HT-29 26.4 µM | COLO 205 38.5 µM | HCT-116 34.1 µM | TK-10 90.6 µM | SF-268 33.8 µM | SK-OV-3 38.8 µM | SN12C 80.7 µM | UACC-62 28.6 µM | Malme-3M > 100 µM | CCRF-CEM 37.2 µM | MOLT-4 22.1 µM | RXF 393 73.8 µM | SW-620 70.3 µM | SNB-19 35 µM | MDA-N 48.9 µM | OVCAR-5 68.1 µM

COc1ccc(C(=O)CC(c2ccccc2)[C@H]2C(c3ccc(OC)cc3)=Nc3c(nc(SC)n(C)c3=O)NC2c2ccccc2)cc1 (some centres undefined)
inactive: U-251 > 100 µM | KM12 > 100 µM | SF-539 > 100 µM | HT-29 > 100 µM | COLO 205 > 100 µM | HCT-116 89.7 µM | TK-10 > 100 µM | SF-268 > 100 µM | SK-OV-3 > 100 µM | SN12C > 100 µM | UACC-62 > 100 µM | CCRF-CEM > 100 µM | MOLT-4 > 100 µM | RXF 393 > 100 µM | SW-620 > 100 µM | SNB-19 > 100 µM | OVCAR-3 > 100 µM | MDA-N > 100 µM | OVCAR-5 > 100 µM

CC(C(=O)NCNC(=O)c1ccccc1)C(=O)Nc1ccccc1 (centres undefined)
inactive: U-251 > 100 µM | KM12 > 100 µM | SF-539 > 100 µM | HT-29 > 100 µM | COLO 205 > 100 µM | HCT-116 > 100 µM | TK-10 > 100 µM | SF-268 > 100 µM | SK-OV-3 > 100 µM | SN12C > 100 µM | UACC-62 > 100 µM | Malme-3M > 100 µM | CCRF-CEM > 100 µM | MOLT-4 > 10 µM | RXF 393 > 100 µM | SW-620 > 100 µM | SNB-19 > 100 µM | MDA-N > 100 µM | OVCAR-5 > 100 µM

C=C(C)[C@@H]1CC[C@]2(CO)CC[C@]3(C)[C@H](CC[C@@H]4[C@@]5(C)CC[C@H](O)C(C)(C)[C@@H]5CC[C@]43C)[C@@H]12 [BETULIN]
inactive: U-251 11.8 µM | KM12 9.71 µM | SF-539 11.7 µM | HT-29 20.6 µM | HCT-116 30.8 µM | TK-10 17.1 µM | SF-268 25.1 µM | SN12C 24.8 µM | Malme-3M 52.5 µM | CCRF-CEM 34.5 µM | MOLT-4 32.4 µM | RXF 393 10.3 µM | SW-620 20.1 µM | SNB-19 > 10 µM | OVCAR-3 28.2 µM | MDA-N 45 µM | OVCAR-5 55.7 µM
